Test: Human HepG2 cell viability assay in 384 well format
Type: toxicity, cell-based
Design: dose 125 nL, time 70.5 hour; cytotoxicity at 70.5 h: concentration not given beside the values
Details: HepG2 cells, read-out: Inhibition

Structure (SMILES)	cytotoxicity at 70.5 h
O=S(=O)(Nc1ccccn1)c1cc(Cl)cc2c1OCC2	4.53%
O=S(=O)(Nc1nccs1)c1cc(Cl)cc2c1OCC2	2.51%
Cc1cc(CN2CC[C@H]3OCC[C@@]3(C(=O)N3CCOCC3)C2)no1	-5%
CN(C)[C@@H]1CCN(S(C)(=O)=O)[C@H]1Cc1ccccc1	1.53%
CC(C)N(C)Cc1nnc2n1CCCN(c1cnccn1)C2	-4.42%
O=C([C@H]1CC[C@@H]2[C@@H](CCN2c2ncccn2)O1)N1CCCCO1	-1.66%
O=C(Cc1cccs1)N1Cc2nc(CN3CCCC3)oc2C1	13%
O=C(Cc1cccs1)N1Cc2nc(COCC3CC3)oc2C1	0.985%
NC(=O)N1CCc2ncc(CNC(=O)CC3CC3)n2CC1	1.82%
CC(C)n1nc(CN2CCCC2=O)c2c1CN(C(=O)c1ccco1)C2	-5.68%
Cn1ncc2c1C(COCC1CC1)CN(c1ncc(F)cn1)C2 (stereo unspecified)	-4.28%
Cc1nc(Cn2c3c(ccc2=O)CC(NC(N)=O)CC3)cs1 (stereo unspecified)	5.59%
CCN1CCOCC2(C1)CN(C(=O)c1c(C)noc1C)CCO2 (stereo unspecified)	-3.94%
CS(=O)(=O)N1CCO[C@@H]2CN(C(=O)c3ccnnc3)C[C@@H]2C1	-2.42%
CS(=O)(=O)N1C[C@H]2CN(CC3CC3)C(=O)[C@H]2C1	-2.81%
CCOC1COC2(CCN(c3ncc(C)cn3)CC2)C1 (stereo unspecified)	-2.14%
CS(=O)(=O)N1CCO[C@@H]2CN(C(=O)c3cccnc3)C[C@@H]2C1	-2.16%
CC(=O)N1CCOC2(CCN(C(=O)c3cnoc3C)CC2)C1	2.68%
Cn1cc(CN2C[C@@H]3[C@@H](C2)OCC(=O)N3Cc2ccncc2)cn1	-6.23%
O=C(C1CCC1)N1CCn2c(COc3ncccn3)nnc2C1	1.54%
Cc1nc([C@@H]2C[C@@H]3CCN(C(=O)Cc4ccsc4)C[C@H]3O2)no1	-13.8%
COc1ncccc1C(=O)N1CCn2c(COCC3CC3)cnc2C1C (stereo unspecified)	-0.554%

Structure (SMILES)	cytotoxicity at 70.5 h
O=C(NCCO)c1ccn(-c2ccc3ccccn23)n1	25.4%
CC(C)c1nccc([C@H]2C[C@@H]3CCN(Cc4ccco4)C[C@H]3O2)n1	-9.27%
COC[C@@H]1CC[C@H]2[C@H](CCN2S(=O)(=O)c2cccc(C)c2)O1	-11.1%
CC(C)CNC(=O)c1ccc2nnc(C3CCN(S(C)(=O)=O)C3)n2c1 (stereo unspecified)	-19.7%
O=c1cc(Cn2cncn2)nc2n1CCCN(CC1CC1)C2	-33%
Cc1ccc(CN2CCCn3c(nc(Cn4cncn4)cc3=O)C2)s1	-19.3%
CS(=O)(=O)N1CCC2(CC1)CC(CC(=O)NC1CC1)c1ccccc12 (stereo unspecified)	-20.3%
Fc1cccc(CN2CCO[C@H]3[C@@H](OCc4ccccn4)CC[C@@H]32)c1	-15.5%
Cn1cc(CNCC2Cn3nnc(-c4ccccc4)c3CO2)cn1 (stereo unspecified)	-16.3%
Cn1cc(CN2CCC3(CCCN3S(C)(=O)=O)CC2)cn1	12.4%
Cc1ccsc1C(=O)N1Cc2ccccc2C2(CCN(C)CC2)C1	-6.4%
CCO[C@H]1CO[C@@]2(CCCN(S(=O)(=O)c3ccccc3)C2)C1	1.01%
OCCNc1cc(-c2ccccc2)ncn1	-1.96%
OCCNc1cc(-c2ccncc2)ncn1	0.654%
C[C@H](O)CNc1cc(-c2ccccc2)ncn1	-0.249%
Cc1ncncc1-c1ccnc(NC(C)C)n1	-2.82%
C[C@H](O)CNc1cc(-c2ccncc2)ncn1	-0.809%
Cc1ccc2c(c1)[C@@H](CC(=O)N(C)C)CCO2	-2.63%
COc1cc(-c2cc(N)ncn2)cc(OC)c1OC	-6.28%
COc1cc(-c2cc(OC)c(OC)c(OC)c2)ncn1	-6.68%
COCC(=O)NCC[C@H]1CC(C)(C)Oc2ccccc21	-3.02%
CN(C)c1nccc(NCc2cc(-c3ccco3)n[nH]2)n1	-3.1%

Structure (SMILES)	cytotoxicity at 70.5 h
CN1CC(=O)c2sc(NCCc3ccccc3)nc2C1	30%
Cc1ccc2c(c1)[C@@H](CC(=O)N1CCN(C)CC1)CCO2	3.15%
Cc1noc(C)c1CN1CCO[C@H]2CNC[C@H]21	-6.78%
C[C@@H]1CN(C(=O)c2ccc[nH]2)C[C@]12CCN(CCN1CCCC1)C2=O	-5.21%
COCCN1C(=O)CC[C@@H]2[C@@H]1CCN2Cc1c(C)noc1C	-5.73%
COCCN1CCC2(C1)c1ccccc1S(=O)(=O)N2C (stereo unspecified)	-10.1%
CNC(=O)COC1COC2(CCN(Cc3cccnc3)CC2)C1 (stereo unspecified)	-9.98%
O=C(c1cscn1)N1CCc2ncnc(-c3cccnc3)c2CC1	18.5%
O=C1N(Cc2ccncc2)CCC12CCCN(c1ncc(F)cn1)C2 (stereo unspecified)	14.6%
CN(C)[C@@H]1CCN(S(=O)(=O)C2CC2)[C@H]1Cc1ccccc1	1.77%
CC(C)CS(=O)(=O)N1C[C@H]2C[C@H](C(=O)N3CCN(C)CC3)[C@@H](C1)O2	-3.23%
CCS(=O)(=O)N1CCOC2(CCCN(Cc3ccccn3)C2)C1 (stereo unspecified)	-1.63%
Fc1cnc(N2CCCn3cnc(COc4cccnc4)c3C2)nc1	-2.49%
CCS(=O)(=O)N1CCCn2cnc(COc3cccnc3)c2C1	-2.04%
CCCS(=O)(=O)N1CCOC2(CCCN(Cc3ccccn3)C2)C1 (stereo unspecified)	-2.44%
CS(=O)(=O)NC[C@H]1OC[C@H]2CN(CCc3ccccc3)CC[C@H]21	-0.811%
CC(C)CN1C[C@H]2C[C@H](C(=O)N3CCCC3)[C@@H](C1)O2	-2.66%
O=S(=O)(C1CC1)N1CCOC2(CCCN(Cc3ccccn3)C2)C1 (stereo unspecified)	-5.41%
Cc1cnc(N2CCCn3c(nnc3CN(C)C(C)C)C2)nc1	-1.83%
O=C1N(CC2CC2)CCC12CCCN(c1ncc(F)cn1)C2 (stereo unspecified)	-3.11%
Cc1ccc(N2CC[C@H]3O[C@H](C(=O)N4CCCCO4)CC[C@H]32)nn1	-3.7%
c1csc(CN2C[C@H](OCC3CCOCC3)[C@H]3COC[C@H]32)n1	14.6%

Structure (SMILES)	cytotoxicity at 70.5 h
c1cc(CN2C[C@H](OCC3CCOCC3)[C@H]3COC[C@H]32)co1	12.4%
CN(C)[C@@H]1CN(C(=O)Cc2ccccc2)[C@@H]2CCCO[C@H]12	15.5%
CN(C)C(=O)CO[C@H]1CN(Cc2nccs2)[C@@H]2COC[C@H]12	-9.59%
CN(C)[C@@H]1CN(C(=O)Cc2cccs2)[C@@H]2CCCO[C@H]12	-5.81%
COCCN1CCc2ncnc(NC(C)C)c2CC1	-5.11%
Cc1cnc(N2CC[C@H]3[C@@H]2CCC(=O)N3c2ccccc2)nc1	5.23%
Fc1cnc(N2CCO[C@H]3[C@H](OCCN4CCCC4)CC[C@@H]32)nc1	-8.48%
CC(C)CCN1C[C@H]2C[C@H](C(=O)NCC(C)C)[C@@H](C1)O2	-2.84%
Cn1cc(-c2ncc3c(c2C(=O)O)CCN(Cc2ccco2)C3)cn1	-5.93%
CN(C)C(=O)CO[C@H]1CN(Cc2ccsc2)[C@@H]2COC[C@H]12	-1.85%
O=C(c1cscn1)N1CC[C@@H]2[C@@H]1CCN2CC1CCOC1 (stereo partly specified)	-1.02%
O=C(c1cscn1)N1CC[C@@H]2[C@@H]1CCN2C1CCOCC1	-3.43%
COCCNC(=O)[C@@]12CCO[C@@H]1CCN(Cc1c(C)noc1C)C2	-5.87%
Cn1cc(CN2CCC3(CC(=O)N(c4ccc5c(c4)OCO5)C3)C2)cn1 (stereo unspecified)	-9.01%
O=C(c1ccco1)N1C[C@H]2CCCN(Cc3cccs3)[C@H]2C1	7.1%
Cc1cnc(C(=O)N2C[C@@H]3CN(CC4CCCC4)CCO[C@@H]3C2)cn1	25.7%
CN(C)C(=O)N1C[C@H]2CCC[C@@]2(COc2ccccn2)C1	-8.44%
c1cnc(N2CCC3(CCN(CC4CCOC4)C3)CC2)nc1 (stereo unspecified)	-17.9%
Cc1noc(C)c1C(=O)N1C[C@H]2CCC[C@@]2(COc2ccccn2)C1	-11.3%
COc1ccc(CC(=O)N2C[C@@H]3COC[C@]3(CN(C)C)C2)cc1	-17.9%
O=C(Nc1cccnc1)[C@H]1C[C@H]2OCC[C@H]2N(C(=O)c2ccsc2)C1	-15.4%
Cc1oncc1C(=O)NCc1cc(=O)n2c(n1)CN(C)CCC2	-14.9%

Structure (SMILES)	cytotoxicity at 70.5 h
CCC(CC)C(=O)N1CCC2(C1)CN(c1ccccc1)C(=O)CN2C (stereo unspecified)	-20.2%
O=C(c1ccncc1)N1CCCC2(COCCN(c3ccccc3)C2)C1 (stereo unspecified)	-16.1%
O=C1N(Cc2cccnc2)CCC12CCCN(c1ncccn1)C2 (stereo unspecified)	17.3%
c1cncc(COCC2CC[C@H]3[C@H]2OCCN3Cc2ccoc2)c1 (stereo partly specified)	11.3%
Cc1ccc(CN2CCO[C@H]3[C@@H](OCc4cccnc4)CC[C@@H]32)o1	-14.9%
CCn1ncc2c1C(COC)CN(c1ncc(F)cn1)C2 (stereo unspecified)	-9.93%
Cn1nc(COCC2CC2)c2c1CN(CC1CC1)CC2	-0.347%
O=C(C1CC1)N1Cc2[nH]nc(COCc3cccnc3)c2C1	-0.809%
CN(C)c1ncc2c(c1C(=O)O)CCN(Cc1ccco1)C2	-4.04%
CN(C)C(=O)c1n[nH]c2c1CN(CC1CCC1)C2	-1.39%
CN(C)C(=O)c1n[nH]c2c1CN(CC1CCCCC1)C2	-2.71%
CN(C)[C@@H]1CN(Cc2ccco2)C[C@@H]2CCCO[C@@H]21	-8.79%
COCC1CC2(CCN(Cc3cnn(C)c3)CC2)CN1C(C)C (stereo unspecified)	-15.8%
COc1ccc(CN2CCC3(CC2)NC(=O)CC3c2ccncc2)cc1 (stereo unspecified)	-7.29%
c1cnc(N2CCC3(CCN(CC4CC4)CC3)CC2)nc1	-15.1%
Cc1noc(C)c1CN1CCO[C@H]2CN(CC3CC3)C[C@H]21	-28.9%
CO[C@@H]1CCN(Cc2cccs2)[C@@H]2CN(Cc3ccncc3)C[C@@H]21	-3.45%
CO[C@H]1CCN(Cc2c(C)noc2C)[C@@H]2CN(Cc3cccnc3)C[C@H]12	-7.23%
